Measurements as given in patent US11801307B2, “Antibody-polymer-drug conjugates” (priority 2016, dated 2023).
“Also recorded” adds a separate entry of the source.

Tests used:
[1] = free drug; cited from earlier work
[2] = system: A2780 human ovarian carcinoma xenografts; conditions: 5 mg/kg EPI equivalent, day 20, s.c. model; cited from earlier work
CD20 = target: T1, CD20 (Homo sapiens, UniProt P11836); experiment: RTX-Cy5 binding on the surface of Ramos cells, with and without RTX pre-blocking
T1 construct: host or cells: Ramos Burkitt's lymphoma cells
T1 sequence (P11836 1-297): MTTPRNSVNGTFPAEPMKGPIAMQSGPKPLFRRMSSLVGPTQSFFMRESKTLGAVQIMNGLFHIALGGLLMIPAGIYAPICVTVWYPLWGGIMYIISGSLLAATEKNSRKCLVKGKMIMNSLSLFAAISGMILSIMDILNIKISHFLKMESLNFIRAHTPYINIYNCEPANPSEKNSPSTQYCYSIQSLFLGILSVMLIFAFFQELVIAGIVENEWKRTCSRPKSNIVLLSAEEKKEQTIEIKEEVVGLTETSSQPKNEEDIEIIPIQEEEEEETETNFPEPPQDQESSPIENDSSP
Experimental: Non-treated, cells in culture medium; RTX-Cy5, Ramos cells (2×10^5) were treated with 1 μg RTX-Cy5 at 4° C. for 30 min; RTX Blocked+RTX-Cy5, after pre-blocking by 10 μg RTX at 4° C. for 30 min, 1 μg RTX-Cy5 was added and incubated at 4° C. for 30 min. The cells were analyzed by flow cytometry. Data are reported as MFI, mean fluorescence intensity.
To ensure CD-20 antigen expression on the surface of the Ramos cells used, the Ramos cells were exposed to RTX labeled with Cy5 (RTX-Cy5). […] This confirmed the expression of CD20 on the surface of the Ramos cells, and their specific binding affinity to RTX.

Ramos cells = experiment: In vitro cytotoxicity toward Ramos cells, CCK-8 assay; type: cell-based, human; conditions: 48 h
Experimental: The cytotoxicity of antibody and antibody-polymer-drug conjugates against Ramos cells was measured by CCK-8 assay (Dojindo). The cells were seeded in 96-well plates at the density of 10,000 cells (200 μl) per well in RMPI-1640 media containing 10% FBS. After 24 h, RTX, RTX-EPI RTX-P-EPI, mixture of RTX with P-EPI and IgG-P-EPI (0.3 mg/ml×15 μl for antibody) in medium was added and incubated at 37° C. for 48 h. The number of viable cells was estimated using CCK-8 kit according to the manufacturer's protocol. In brief, 50 μl 5× diluted CCK-8 solution was added and incubated at 37° C., 5% CO2 for 4 h, the absorbance was measured using a microplate reader at 450 nm (630 nm as reference). Untreated control cells were set as 100% viable.
The cytotoxicity of RTX-P-EPI against Ramos cells was first evaluated at the concentration of 0.15 μM (related to RTX). Unconjugated RTX, non-specific conjugate IgG-P-EPI and directly conjugated with free drug (RTX-EPI) were used as controls. The Ramos cells were incubated with the samples for 48 h and evaluated by CCK-8 assay (FIG. 6).
10^4 Ramos cells were seeded in each well of 96-well plates in 200 μl RPMI-1640 media containing 10% FBS. Different samples (0.3 mg/ml×15 μl) were added and incubated at 37° C. in a humidified atmosphere of 5% CO2 (v/v). After 48 h, the number of viable cells was estimated using CCK-8 kit at 450 nm (630 nm as reference). […]

[3] = system: Ramos B-cell lymphoma tumors; conditions: i.v., 4 doses at 3-day intervals, 20 mg/kg RTX or equivalent (EPI 1.5 mg/kg)
Experimental: Ramos cells (5×10^6) in 200 μl of PBS were subcutaneously inoculated in the right flank of 7- to 9-wk-old male NOD SCID mice. Tumor size was measured with a caliper, and tumor volume was calculated according to the formula: Tumor volume (mm^3)=½×length×[…], where the length (mm) is the longest and the width (mm) is the shortest dimension of the tumor. When the average tumor size reached 150±50 mm^3, treatment was initiated (n=4-5). […] Body weight variation was computed by the equation: variation=(WDayn−WDay0)/WDay0×100%. […] Saline was used as non-treated control. […] The data are presented as mean±SD (n=4-5).
NOD SCID mice were subcutaneously implanted with Ramos cells (5×10^6 cells/200 μl saline) into the right flank. […] Saline was injected as control. […] Mice were treated with 4 doses at 3-day intervals.
In addition, body weight of the mice was closely recorded during and after treatment. […] Four-doses were administered on days 11, 14, 17 and 20.

Raji cells = experiment: Apoptosis induction in Raji cells, Annexin V/PI staining; type: cell-based, human; conditions: RTX alone
Experimental: Incubation time was 48 h.
Percentage of apoptotic cells was quantified by flow cytometry. All data are presented as mean±SD (n=3).
This raises the likelihood that this system will be efficient in the treatment of RTX-resistant disease.

[4] = Blood pharmacokinetics of 125I-labeled conjugates; type: in vivo, male NOD SCID mice; conditions: i.v. 3.5 mg/kg single dose
Experimental: The conjugates were radioiodinated by the Iodogen method as previously described (Liu et al., 2009). 7-9 week-old healthy male NOD/SCID mice (n=3) were intravenously injected with ^125I labeled RTX, RTX-P-EPI or IgG-P-EPI conjugates (0.1 mg, 20 μCi per mouse), respectively. At predetermined intervals, blood samples (10 μl) were taken from the tail vein, and the radioactivity of each sample was measured with Gamma Counter (Packard).
The pharmacokinetic properties of ^125I labeled RTX, RTX-P-EPI and IgG-P-EPI were evaluated in male NOD SCID mice. Antibody was radiolabeled by ^125I and i.v. injected at 3.5 mg/kg (based on antibody for RTX, RTX-P-EPI, and IgG-P-EPI) single dose.

[5] = Biodistribution of 125I-labeled conjugates in mice bearing s.c. Ramos tumors; type: in vivo, male NOD SCID mice; conditions: 72 h after intravenous injection
Experimental: For biodistribution study, 7-9 week-old male NOD SCID mice bearing s.c. Ramos tumors received intravenous injection of ^125I labeled RTX, RTX-P-EPI, or IgG-P-EPI (0.1 mg, 20 μCi per mouse). At 72 and 96 h after administration, the mice were sacrificed. Various tissues (heart, liver, spleen, lung, kidney, stomach, intestine, muscle, bone, brain and tumor) were harvested, weighed, and counted for radioactivity with Gamma Counter (Packard). Uptake of the conjugate was calculated as the percentage of the injected dose per gram of tissue (% ID/g). Data are presented as mean±standard deviation (n=3).
The biodistribution of RTX, RTX-P-EPI and IgG-P-EPI labeled by ^125I in male NOD SCID mice bearing s.c. xenograft tumor model was also compared.

low-grade NHL = conditions: disease progression or relapse after prior RTX; cited from earlier work

## COc1cccc2c1C(=O)c1c(O)c3c(c(O)c1C2=O)C[C@@](O)(C(=O)CO)C[C@@H]3O[C@H]1C[C@H](N)[C@@H](O)[C@H](C)O1 [EPI, epirubicin]
[1]
  terminal half-life: 9 to 20 min
[2]
  tumor size relative to baseline: 1772±840 % of the baseline

## RTX-Cy5
CD20; 1 μg RTX-Cy5, 4° C., 30 min
  Cy5 signal of Ramos cells incubated with RTX-Cy5: high Cy5 signal
CD20; pre-blocking by 10 μg RTX, then 1 μg RTX-Cy5
  Cy5 signal after CD20 receptors were blocked with over-saturation dose of RTX: no Cy5 signal detectable

## RTX-EPI: control conjugate in which EPI was directly attached to RTX via maleimide, EPI/RTX 3.1
Ramos cells; 0.15 μM (related to RTX)
  kill of Ramos cells: 18%
[3]
  antitumor effect (in words): marginal effects

## Rituximab [RTX, reference compound]
Ramos cells; 0.15 μM
  cytotoxicity against Ramos cells (in words): nearly undetectable
Raji cells
  change of apoptosis level on increase of antibody concentration from 0.2 μM to 2 μM: did not significantly enhance the apoptosis level; also recorded: did not increase
[3]
  antitumor effect (in words): marginal effects
[4]
  AUC (total area under the blood concentration versus time curve): 716.46 ± 66.64 % ID h/mL
[5]
  level in the tumor: 0.71 % ID/g tissue
low-grade NHL
  patients responding to RTX re-treatment: 40%
